Data on 26 compounds can be found in patent US10138230B2, “Autotaxin inhibitors” (CANCER RESEARCH TECHNOLOGY LIMITED, priority 2015, dated 2018).

Structures are written as SMILES. Where a name gives a salt, the structure may show the parent alone.

This experiment has as its target human recombinant ATX (Homo sapiens (Human), UniProt Q13822). Briefly: Autotaxin (ATX) activity Quanta Red assay. Type of experiment: biochemical. Particulars: 15 μM Rac-1-Palmitoyl-glycero-3-phosphocholine, 2 hours room temperature, determined in duplicate. The procedure:
The ATX enzyme assay (Quanta Red assay) described in accompanying Example section may be used to measure the pharmacological effects of the compounds of the present invention.
Autotaxin (ATX) Activity Quanta Red Assay
Measuring ATX activity using an enzyme coupled Quanta Red assay (Thermo Scientific—Pierce Protein Research Products, Product #15159) was determined as follows. 8 μL human recombinant ATX (final concentration 0.8 μg/mL) in 1× Assay buffer containing 50 mM Tris-HCl (pH 8.0), 5 mM CaCl2 was added to an opaque black flat-bottom 384-well plate (Corning, #3575) containing 2 μL test compound in 40% DMSO (4% final DMSO concentration). 10 μL of Quanta Red, Horseradish peroxidase (HRP), Choline Oxidase (CO), Rac-1-Palmitoyl-glycero-3-phosphocholine solution (final concentration 1:250 for Quanta Red, 0.5units/ml HRP, 0.5units/ml CO, 15 μM Rac-1-Palmitoyl-glycero-3-phosphocholine) in 1× assay buffer (as described previously) was added to each well to start the reaction and the plate was incubated at room temperature for 2 hours. The reaction was stopped after 2 hours with a 20 μL addition of Quanta Red Stop solution (1:20 dilution in distilled water). The above-described mixture with DMSO alone was used as a positive control whereas that with DMSO alone without ATX was taken as a negative control.
For each test compound, ten concentrations were measured covering a range of 6.1 nM to 120 μM to determine IC50 values. The top concentration was decreased to 1.2 μM when a test compound's IC50 value was evaluated in low nanomolar range. Fluorescence was determined in a BMG Labtech Pherastar plus plate reader ([…]). Data were analysed using Excel fit software. IC50 values were determined in duplicate.
The IC50 is the point on the concentration scale where inhibition reaches its midpoint. As for `CCC(C)CCc1nnc(NC(=O)C2CC(=O)N(c3ccc(CN4CCCCC4)cc3)C2)s1` (centres unmarked) [Compound F182, 5-oxo-1-(4-piperidin-1-ylmethyl-phenyl)-pyrrolidine-3-carboxylic acid [5-(3-methyl-pentyl)-[1,3,4]thiadiazol-2-yl]-amide; hydrochloride], the IC50 was determined as 21 nM. Regarding `O=C(N[C@@H]1CC(=O)N(c2ccc(CN3CCCCC3)cc2)C1)c1cc(CCc2ccc(F)cc2)on1` [Compound F173, 5-[2-(4-fluorophenyl)ethyl]-N-[(3R)-5-oxo-1-[4-(1-piperidylmethyl)phenyl]pyrrolidin-3-yl]isoxazole-3-carboxamide], the IC50 is 24 nM. The result for `O=C(N[C@H]1CCN(c2ccc(CN3CCOCC3)cc2)C1)c1nnc(CCc2ccc(Cl)cc2)s1` [Compound F167, 5-[2-(4-Chloro-phenyl)-ethyl]-[1,3,4]thiadiazole-2-carboxylic acid [(S)-1-(4-morpholin-4-ylmethyl-phenyl)-pyrrolidin-3-yl]-amide] reads 16 nM. On to `O=C(Nc1nnc(CCC2CCCCO2)s1)[C@H]1CC(=O)N(c2ccc(CN3CCCCC3)cc2)C1` (stereo partly drawn) [Compound F164, (3S)-5-oxo-1-[4-(1-piperidylmethyl)phenyl]-N-[5-(2-tetrahydropyran-2-ylethyl)-1,3,4-thiadiazol-2-yl]pyrrolidine-3-carboxamide], for which the IC50 is 70 nM. `O=C(Nc1cc(CCc2ccccc2)no1)C1CC(=O)N(c2ccc(CN3CCOCC3)cc2)C1` (centres unmarked) [Compound F200, 1-[4-(morpholinomethyl)phenyl]-5-oxo-N-[3-(2-phenylethyl)isoxazol-5-yl]pyrrolidine-3-carboxamide]: the IC50 was determined as 760 nM. In the case of `O=C(Nc1nnc(CCc2ccccc2)s1)C1CC(=O)N(c2ccc(CN3CCOCC3)cc2)C1` (centres unmarked) [Compound F176, 1-[4-(morpholinomethyl)phenyl]-5-oxo-N-[5-(2-phenylethyl)-1,3,4-thiadiazol-2-yl]pyrrolidine-3-carboxamide], the IC50 amounted to 11 nM. The result for `O=C(N[C@H]1CC(=O)N(c2ccc(CN3CCCCC3)cc2)C1)c1cc(CCc2ccc(Cl)cc2)on1` [Compound F145, 5-[2-(4-chlorophenyl)ethyl]-N-[(3S)-5-oxo-1-[4-(1-piperidylmethyl)phenyl]pyrrolidin-3-yl]isoxazole-3-carboxamide] reads 3 nM; that for `CC1(O)CCN(Cc2ccc(N3C[C@H](NC(=O)c4nnc(CCc5ccc(Cl)cc5)s4)CC3=O)cc2)CC1` [Compound F169, 5-[2-(4-chlorophenyl)ethyl]-N-[(3R)-1-[4-[(4-hydroxy-4-methyl-1-piperidyl)methyl]phenyl]-5-oxo-pyrrolidin-3-yl]-1,3,4-thiadiazole-2-carboxamide], 22 nM. For `C[C@@H]1CN(Cc2ccc(N3CC(C(=O)Nc4nnc(CCc5ccc(Cl)cc5)s4)CC3=O)cc2)C[C@H](C)O1` (stereo partly drawn) [Compound F119, N-[5-[2-(4-chlorophenyl)ethyl]-1,3,4-thiadiazol-2-yl]-1-[4-[[(2S,6R)-2,6-dimethylmorpholin-4-yl]methyl]phenyl]-5-oxo-pyrrolidine-3-carboxamide], the IC50 was 4 nM. `O=C(N[C@H]1CC(=O)N(c2ccc(CN3CCOCC3)cc2)C1)c1nnc(CCc2ccc(Cl)cc2)s1` [Compound F135, 5-[2-(4-chlorophenyl)ethyl]-N-[(3S)-1-[4-(morpholinomethyl)phenyl]-5-oxo-pyrrolidin-3-yl]-1,3,4-thiadiazole-2-carboxamide]: the IC50 amounted to 3 nM. The result for `CN(Cc1ccc(N2CC(C(=O)Nc3nnc(CCc4ccc(Cl)cc4)s3)CC2=O)cc1)C1CCOCC1` (centres unmarked) [Compound F111, N-[5-[2-(4-chlorophenyl)ethyl]-1,3,4-thiadiazol-2-yl]-1-[4-[[methyl(tetrahydropyran-4-yl)amino]methyl]phenyl]-5-oxo-pyrrolidine-3-carboxamide] reads 3 nM. Consider `O=C(Nc1nnc(CCc2ccc(F)cc2)s1)[C@H]1CC(=O)N(c2ccc(CN3CCOCC3)cc2)C1` (stereo in doubt) [Compound F215, 1-(4-Morpholin-4-ylmethyl-phenyl)-5-oxo-pyrrolidine-3-carboxylic acid {5-[2-(4-fluoro-phenyl)-ethyl]-[1,3,4]thiadiazol-2-yl}-amide; hydrochloride], for which the IC50 came to 3 nM. Consider `CN(CCC(C)(C)O)Cc1ccc(N2C[C@H](NC(=O)c3nnc(CCc4ccc(Cl)cc4)s3)CC2=O)cc1` [Compound F171, 5-[2-(4-chlorophenyl)ethyl]-N-[(3R)-1-[4-[[(3-hydroxy-3-methyl-butyl)-methyl-amino]methyl]phenyl]-5-oxo-pyrrolidin-3-yl]-1,3,4-thiadiazole-2-carboxamide], for which the IC50 amounted to 58 nM.

As to `O=C(NC1CC(=O)N(c2ccc(CN3CCCCC3)cc2)C1)c1nnc(CCc2ccccc2)s1` (centres unmarked) [Compound F172, N-[5-oxo-1-[4-(1-piperidylmethyl)phenyl]pyrrolidin-3-yl]-5-(2-phenylethyl)-1,3,4-thiadiazole-2-carboxamide], the IC50 came out at 76 nM. On to `O=C(Nc1nnc(CCc2ccc(Cl)cc2)s1)[C@H]1CC(=O)N(c2ccc(CN3CCOCC3)cc2)C1` [Compound F89, (3S)-N-[5-[2-(4-chlorophenyl)ethyl]-1,3,4-thiadiazol-2-yl]-1-[4-(morpholino-methyl)phenyl]-5-oxo-pyrrolidine-3-carboxamide], for which the IC50 stood at 1 nM.

On to `CC1CCN(Cc2ccc(N3C[C@H](NC(=O)c4nnc(CCc5ccc(Cl)cc5)s4)CC3=O)cc2)CC1` [Compound F138, 5-[2-(4-chlorophenyl)ethyl]-N-[(3R)-1-[4-[(4-methyl-1-piperidyl)methyl]phenyl]-5-oxo-pyrrolidin-3-yl]-1,3,4-thiadiazole-2-carboxamide], for which the IC50 came out at 5 nM. As to `O=C(NC1CC(=O)N(c2ccc(CN3CCCCC3)cc2)C1)c1cc(CCc2ccc(Cl)cc2)on1` (centres unmarked) [Compound F144, 5-[2-(4-chlorophenyl)ethyl]-N-[5-oxo-1-[4-(1-piperidylmethyl)phenyl]pyrrolidin-3-yl]isoxazole-3-carboxamide], the IC50 is 2 nM. As to `O=C(Nc1nnc(CCc2ccc(Cl)cc2)s1)[C@@H]1CC(=O)N(c2ccc(CN3CCOCC3)cc2)C1` [Compound F161, (3R)-N-[5-[2-(4-chlorophenyl)ethyl]-1,3,4-thiadiazol-2-yl]-1-[4-(morpholinomethyl)phenyl]-5-oxo-pyrrolidine-3-carboxamide], the IC50 turned out to be 37 nM. In the case of `O=C(NC1CC(=O)N(c2ccc(CN3CCCCC3)cc2)C1)c1cc(CCc2ccccc2)no1` (centres unmarked) [Compound F198, N-[5-oxo-1-[4-(1-piperidylmethyl)phenyl]pyrrolidin-3-yl]-3-(2-phenylethyl)isoxazole-5-carboxamide], the IC50 was 989 nM. In the case of `O=C(Nc1nnc(CCc2ccc(Cl)cc2)s1)[C@@H]1CC(=O)N(c2ccc(CN3CCCCC3)cc2)C1` [Compound F163, (3R)-N-[5-[2-(4-chlorophenyl)ethyl]-1,3,4-thiadiazol-2-yl]-5-oxo-1-[4-(1-piperidylmethyl)phenyl] pyrrolidine-3-carboxamide], the IC50 was determined as 49 nM.

On to `O=C(Nc1nnc(CCc2ccc(F)cc2)s1)[C@H]1CC(=O)N(c2ccc(CN3CCOCC3)cc2)C1` [Compound F108, (3S)-N-[5-[2-(4-fluorophenyl)ethyl]-1,3,4-thiadiazol-2-yl]-1-[4-(morpholinomethyl)phenyl]-5-oxo-pyrrolidine-3-carboxamide], for which the IC50 turned out to be 3 nM. The value for `CN(C)Cc1ccc(N2CC(C(=O)Nc3nnc(CCc4ccc(Cl)cc4)s3)CC2=O)cc1` (centres unmarked) [Compound F177, N-[5-[2-(4-chlorophenyl)ethyl]-1,3,4-thiadiazol-2-yl]-1-[4-[(dimethylamino)methyl]phenyl]-5-oxo-pyrrolidine-3-carboxamide] was 29 nM; that for `O=C(Nc1nnc(CCC2CCCC2)s1)C1CC(=O)N(c2ccc(CN3CCCOCC3)cc2)C1` (centres unmarked) [Compound F122, N-[5-(2-cyclopentylethyl)-1,3,4-thiadiazol-2-yl]-1-[4-(1,4-oxazepan-4-ylmethyl)phenyl]-5-oxo-pyrrolidine-3-carboxamide] was 4 nM; that for `O=C(Nc1nnc(CCC2CCCCO2)s1)[C@H]1CC(=O)N(c2ccc(CN3CCOCC3)cc2)C1` (stereo partly drawn) [Compound F165, (3S)-1-[4-(morpholinomethyl)phenyl]-5-oxo-N-[5-(2-tetrahydropyran-2-ylethyl)-1,3,4-thiadiazol-2-yl]pyrrolidine-3-carboxamide] was 95 nM.

For the compound `O=C(NC1CC(=O)N(c2ccc(CN3CCCCC3)cc2)C1)c1ccc(CCc2ccccc2)nn1` (centres unmarked) [Compound F205, N-[5-oxo-1-[4-(1-piperidylmethyl)phenyl]pyrrolidin-3-yl]-6-(2-phenylethyl)pyridazine-3-carboxamide], the IC50 was determined as 7060 nM. The result for `COCCN(C)Cc1ccc(N2CC(C(=O)Nc3nnc(CCc4ccc(Cl)cc4)s3)CC2=O)cc1` (centres unmarked) [Compound F100, N-[5-[2-(4-chlorophenyl)ethyl]-1,3,4-thiadiazol-2-yl]-1-[4-[[2-methoxyethyl(methyl)amino]methyl]phenyl]-5-oxo-pyrrolidine-3-carboxamide] reads 2 nM.
